Reference: PubChem BioAssay (NCI)
Several values for one entry are separate records, joined by “and”; a condition that tells them apart may be missing. Identical values can stand only once.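 Dose response: 5 concentrations. Exposure: 48 h. Format: 96-well plates. Endpoint: linear interpolation; highest concentration if not reached. The concentration for full growth arrest is given as TGI.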

Key:
Experiment in all cases: NCI tumour cell line growth inhibition, 48 h
[1] = test system: CAKI-1 renal
[2] = test system: HCC-2998 colon
[3] = test system: HCT-15 colon
[4] = test system: LOX IMVI melanoma
[5] = test system: OVCAR-3 ovarian
[6] = test system: OVCAR-4 ovarian
[7] = test system: OVCAR-8 ovarian
[8] = test system: SN12C renal
[9] = test system: SNB-19 CNS
[10] = test system: SW-620 colon
[11] = test system: T-47D breast
[12] = test system: UO-31 renal
[13] = test system: A498 renal
[14] = test system: NCI-H226 lung

| Structure (SMILES) | TGI [1] | TGI [2] | TGI [3] | TGI [4] | TGI [5] | TGI [6] | TGI [7] | TGI [8] | TGI [9] | TGI [10] | TGI [11] | TGI [12] | TGI [13] | TGI [14] |
| --- | --- | --- | --- | --- | --- | --- | --- | --- | --- | --- | --- | --- | --- | --- |
| S=C1NC2=C(CSC/C2=C\c2ccc(Cl)cc2)C(c2ccc(Cl)cc2)N1 (stereo not given) | > 100 µM | 77.6 µM | > 100 µM | > 100 µM | > 100 µM | > 100 µM | > 100 µM | > 100 µM | > 100 µM | > 100 µM | > 100 µM | > 100 µM | – | – |
| C=C(C)[C@H]1CC[C@@]23O[C@@H]2[C@@H](C[C@@]2(C)CC(=O)[C@H](CC(=O)C1)O2)OC(=O)[C@@]12CC[C@H](C(=C)C)CC(=O)C[C@H]4O[C@](C)(CC4=O)C[C@@H](OC3=O)[C@@H]1O2 | > 100 µM | > 100 µM | > 100 µM | > 100 µM | > 100 µM | > 100 µM | > 100 µM | > 100 µM | > 100 µM | – | > 100 µM | > 100 µM | > 100 µM | > 100 µM |
| O=C(c1cscc1CCc1ccccc1)c1cscc1CCc1ccccc1 | > 100 µM | > 100 µM | > 100 µM | > 100 µM | – | > 100 µM | > 100 µM | > 100 µM | > 100 µM | > 100 µM | > 100 µM | > 100 µM | > 100 µM | > 100 µM |
| O[C@@]1(C#Cc2ccc3c(c2)OCO3)CCC[C@H]1NCc1ccccc1 | > 100 µM | 32.2 µM | 47.3 µM | 30.9 µM | 47.4 µM | > 100 µM | 59 µM | – | 68.4 µM | > 100 µM | 41.2 µM | 43.9 µM | 92.5 µM | 51.2 µM |
| COc1ccc(Cc2cc(Cc3ccc(OC)cc3)cc(Cc3ccc(OC)cc3)c2)cc1 | – | > 100 µM | > 100 µM | > 100 µM | > 100 µM | > 100 µM | > 100 µM | > 100 µM | > 100 µM | > 100 µM | > 100 µM | > 100 µM | > 100 µM | > 100 µM |
| O=C1CSC(c2ccccc2O)N1c1ccc2c(c1)Oc1c(Cl)c3c(c(Cl)c1=N2)Oc1cc(N2C(=O)CSC2c2ccccc2O)ccc1N=3 (stereo not given) | > 100 µM | > 100 µM | > 100 µM | > 100 µM | > 100 µM | > 100 µM | > 100 µM | – | – | > 100 µM | > 100 µM | > 100 µM | > 100 µM | > 100 µM |
| CC[C@H](C)[C@@H]([C@@H](CC(=O)N1CCC[C@H]1[C@H](OC)[C@@H](C)C(=O)NCCc1ccccc1)OC)N(C)C(=O)C(NC(=O)[C@H](C(C)C)N(C)C)C(C)C (stereo not given in full) | > 10 µM | 0.00228 µM | > 10 µM | > 10 µM | 0.000544 µM | > 10 µM | > 10 µM | 0.00499 µM and 0.00515 µM | – | > 10 µM | > 10 µM | > 10 µM | > 10 µM | 0.00784 µM |
| C=C1N(S(=O)(=O)c2ccc(C)cc2)C(=O)OCC12CCCC2 | > 100 µM | > 100 µM | > 100 µM | > 100 µM | > 100 µM | > 100 µM | > 100 µM | – | > 100 µM | > 100 µM | > 100 µM | > 100 µM | > 100 µM | > 100 µM |
| C=C1CN=C(Nc2ccc(Cl)cc2)S1 | > 10 µM | > 100 µM | > 100 µM | > 100 µM | > 100 µM | > 100 µM | > 100 µM | > 100 µM | > 100 µM | > 100 µM | > 100 µM | > 100 µM | > 100 µM | – |
